# From US8604085B2, “Bupropion hydrobromide polymorphs” (Valeant International Bermuda, priority 2008, dated 2013)
# Assay: Slurry experiments at room temperature (thermodynamic stability of crystal forms, X-ray diffraction)
# Assay type: physicochemical
# Settings: for Slurry Result / Slurry result, large scale: room temperature; for Slurry Result: form by XRD; for Slurry result, large scale: 0.5 g of powder in 10 mL
# Protocol: Slurry experiments of Form I were performed at room temperature to verify if Form I is the thermodynamic crystal form. 0.050 g of Form I was suspended in 2 ml of solvent and stirred for 1 week. The sample was filtered and analyzed by X-ray diffraction. In the large majority of the experiments, Form I converts into Form II. […] By 1,4-Dioxane, a new crystal form was obtained named Form V. See Table 46 for the Form I slurries results (7 days).
# Further slurry experiments of Form I were performed at room temperature using 0.5 g of powder in 10 mL of solvent to confirm the results obtained even in large scale.
# 0.050 g of Form I were suspended in 2 ml of solvent and stirred at room temperature for 4 weeks (30 days). The sample was filtered and analyzed by X-ray diffraction. By 1,4-Dioxane, Form V was obtained. By tetrahydrofuran, Form II and Form VII were obtained. […] See Table 47 for the Form I slurries results (30 days).
# Slurry experiments of mixtures of Form I and Form II were performed at room temperature to verify their thermodynamic stability. 0.040 g of Form I+0.040 g of Form II were suspended in 4 ml of solvent and stirred for 1 week (7 days). The samples were filtered and analyzed by X-ray diffraction. By 1,4-Dioxane, Form V was obtained. […] See Table 48 for the Form I+Form II slurries results (7 days).
# Slurry experiments of mixtures of Form II and Form III were performed at room temperature to verify their thermodynamic stability. 0.040 g of Form II+0.040 g of Form III were suspended in 4 ml of solvent and stirred for 1 week (7 days). The samples were filtered and analyzed by X-ray diffraction. By 1,4-Dioxane, Form V was obtained. […] See Table 49 for the Form II+Form III slurries results (7 days).
# Slurry experiments of mixtures of Form II and Form IV were performed at room temperature to verify their thermodynamic stability. 0.040 g of Form II+0.040 g of Form IV were suspended in 4 ml of solvent and stirred for 1 week (7 days). The samples were filtered and analyzed by X-ray diffraction. By 1,4-Dioxane, Form V was obtained. […] See Table 50 for the Form II+Form IV slurries results (7 days).
# Slurry experiments of mixtures of Form II and Form V were performed at room temperature to verify their thermodynamic stability. 0.040 g of Form II+0.040 g of Form V were suspended in 4 ml of solvent and stirred for 1 week (7 days). The samples were filtered and analyzed by X-ray diffraction. By 1,4-Dioxane, Form V was obtained. […] See Table 51 for the Form II+Form V slurries results (7 days).
# Slurry experiments of mixtures of Form II and Form VI were performed at room temperature to verify their thermodynamic stability. 0.040 g of Form II+0.040 g of Form VI were suspended in 4 ml of solvent and stirred for 1 week (7 days). The samples were filtered and analyzed by X-ray diffraction. By 1,4-Dioxane, Form V was obtained. […] See Table 52 for the Form II+Form VI slurries results (7 days).
# Slurry experiments of mixtures of Form II and Form VII were performed at room temperature to verify their thermodynamic stability. 0.040 g of Form II+0.040 g of Form VII were suspended in 4 ml of solvent and stirred for 1 week (7 days). The samples were filtered and analyzed by X-ray diffraction. By 1,4-Dioxane, Form V was obtained. […] See Table 53 for the Form II+Form VII slurries results (7 days).
smiles,measurement,setting,value
"Br.CC(NC(C)(C)C)C(=O)c1cccc(Cl)c1 (single isomer, unassigned) [Form I]",Thermodynamic stability of the crystal form as shown by slurry experiments,,metastable form
same,Slurry Result,"1,2-Dimethoxy Ethane, 7 days",Form II
same,Slurry Result,"1,2-Dimethoxy Ethane, 30 days",Form II
same,Slurry Result,"1,4-Dioxane, 7 days",Form V
same,Slurry Result,"1,4-Dioxane, 30 days",Form V
same,Slurry Result,"1-Octanol, 7 days",Form II
same,Slurry Result,"1-Octanol, 30 days",Form II
same,Slurry Result,"3-Pentanone, 7 days",Form II
same,Slurry Result,"4-Methyl-2-Pentanone, 7 days",Form II
same,Slurry Result,"4-Methyl-2-Pentanone, 30 days",Form II
same,Slurry Result,"Acetone, 7 days",Form II
same,Slurry Result,"Acetone, 30 days",Form II
same,Slurry Result,"Benzonitrile, 7 days",Form II + VII
same,Slurry Result,"Cyclohexane, 7 days",Form I
same,Slurry Result,"Cyclohexane, 30 days",Form II
same,Slurry Result,"Diethyl Carbonate, 7 days",Form II
same,Slurry Result,"Diethyl Carbonate, 30 days",Form II
same,Slurry Result,"Diethyl Ether, 30 days",Form II
same,Slurry Result,"Diethyl ether, 7 days",Form II
same,Slurry Result,"Ethyl Acetate (second line of the table), 30 days",Form II
same,"Slurry result, large scale",Ethyl Acetate,convert into Form II
same,Slurry Result,"Ethyl Benzoate, 7 days",Form II
same,Slurry Result,"Ethyl Formate, 7 days",Form II
same,Slurry Result,"Ethyl Formate, 30 days",Form II
same,Slurry Result,"Ethyl acetate, 7 days",Form II
same,Slurry Result,"Ethyl acetate, 30 days",Form II
same,Slurry Result,"Iso-Propyl Ether, 7 days",Form II
same,Slurry Result,"Iso-Propyl Ether, 30 days",Form II
same,Slurry Result,"Isopropyl Acetate, 7 days",Form II
same,Slurry Result,"Isopropyl Acetate, 30 days",Form II
same,Slurry Result,"Mesitylene, 7 days",Form II
same,Slurry Result,"Methyl Benzoate, 7 days",Form II
same,Slurry Result,"Methyl Benzoate, 30 days",Form II
same,Slurry Result,"Methyl Ethyl Ketone, 7 days",Form II
same,Slurry Result,"Methyl Ethyl Ketone, 30 days",Form II
same,Slurry Result,"Methyl-Cyclohexane, 7 days",Form I
same,Slurry Result,"Methyl-Cyclohexane, 30 days",Form II
same,Slurry Result,"Nitrobenzene, 7 days",Form II
same,Slurry Result,"Propyl Acetate, 7 days",Form II
same,Slurry Result,"Tert-Butanol, 7 days",Form II
same,Slurry Result,"Tetrahydrofuran, 7 days",Form II
same,Slurry Result,"Tetrahydrofuran, 30 days",Form II + VII
same,Slurry Result,"Toluene, 7 days",Form II
same,Slurry Result,"Toluene, 30 days",Form II
same,Slurry Result,"n-Hexan, 7 days",Form II
same,Slurry Result,"n-Hexan, 30 days",Form II
same,"Slurry result, large scale",p-Xylene,convert into Form II
same,Slurry Result,"p-Xylene, 7 days",Form II
same,Slurry Result,"p-Xylene, 30 days",Form II
same,Slurry Result,"t-Butyl Methyl Ether, 7 days",Form II
same,Slurry Result,"t-Butyl Methyl Ether, 30 days",Form II
